Test results published in patent US12448388B2, “PRMT5 inhibitors and uses thereof” (Gilead Sciences, Inc., priority 2023, dated 2025).
Like-named read-outs stand apart in the source and are kept apart here.

Assays:
[1] = test system: HCT116 MTAP-deleted cell lines; test: Cell viability assay (CellTiter-Glo, 7 days), HCT116 MTAP-deleted; type: cell-based; details: Homo sapiens, HCT-116
Summary of the method: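 Read-out was CellTiter-Glo luminescence after a 7-day incubation (37 °C, 5% CO2) of HCT116 cells, MTAP-deleted or WT, on dose-response compound plates. CC50 values come from each line; where marked *, selectivity is overstated because poor solubility impaired the WT CC50 measurement.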

[2] = test system: Symmetric Di-methyl Arginine (SDMA) signal (PRMT5 inhibition) in HCT116 MTAP-deleted cells; test: Symmetric di-methyl arginine image-based high content screen assay (SDMA assay), HCT116 MTAP-deleted; type: cell-based; details: for EC50: Homo sapiens, HCT-116, HCT116 MTAP-deleted, class symbols
Summary of the method: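 Read-out is imaging of per-cell mean SDMA immunofluorescence (Alexa 488), with cells segmented by DAPI. Cells, MTAP-deleted or wild-type HCT116, were exposed to compound for 3 days at 37 °C before fixation. EC50 derived by 4-parameter non-linear logistic regression.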

[3] = cell viability, HCT116 MTAP-deleted, class symbols, read-out: CC50
[4] = HCT116 WT versus HCT116 MTAP-deleted
[5] = cell viability assay, HCT116 MTAP-deleted, class symbols, read-out: CC50
[6] = HCT116 WT vs HCT116 MTAP-deleted

## Nc1nc2cc(F)c(C(=O)N3CCO[C@@H]4Cc5cc(Br)ccc5[C@@H]43)cc2n2cncc12 (racemic) [Ff-28, Racemic(4-amino-7-fluoroimidazo[1,5-a]quinoxalin-8-yl)((4aS,9aR)-7-bromo-2,3,9,9a-tetrahydroindeno[2,1-b][1,4]oxazin-4(4aH)-yl)methanone]
[1]; [3]
  CC50: < 100 nM
[2]; [4]
  EC50 selectivity: 256
[2]
  EC50: 1 to 5 nM

## Cc1ncn2c1c(N)nc1ccc(C(=O)N(Cc3ccc(C(F)(F)F)cc3F)N(C)C(=O)C3CC3)cc12 [Fa-4, 4-amino-N′-(cyclopropanecarbonyl)-N-(2-fluoro-4-(trifluoromethyl)benzyl)-N′,3-dimethylimidazo[1,5-a]quinoxaline-8-carbohydrazide]
[1]; [3]
  CC50: < 100 nM
[2]; [4]
  EC50 selectivity: 74
[2]
  EC50: 1 to 5 nM

## Cc1ncn2c1c(N)nc1cnc(C(=O)N3C[C@@H](F)C[C@@H]4Oc5cc(OC(F)(F)F)ccc5[C@@H]43)cc12 [Fg-46, (4-amino-3-methylimidazo[1,5-a]pyrido[3,4-e]pyrazin-8-yl)((3S,4aS,9bS)-3-fluoro-7-(trifluoromethoxy)-3,4,4a,9b-tetrahydrobenzofuro[3,2-b]pyridin-1(2H)-yl)methanone]
[1]; [5]
  CC50: < 100 nM
[2]; [6]
  EC50 selectivity: 273
[2]
  EC50: ≤ 1 nM

## Cc1nc(C)n2c1c(N)nc1ccc(C(=O)N(C)[C@@H]3COc4cc(C(F)(F)F)ccc43)cc12 [Fg-18, (S)-4-amino-N,1,3-trimethyl-N-(6-(trifluoromethyl)-2,3-dihydrobenzofuran-3-yl)imidazo[1,5-a]quinoxaline-8-carboxamide]
[1]; [5]
  CC50: 100 to 1000 nM
[2]; [6]
  EC50 selectivity: 275
[2]
  EC50: 1 to 5 nM

## Cn1cc(N(Cc2ccc(C(F)(F)F)cc2F)C(=O)c2ccc3nc(N)c4cncn4c3c2)cn1 [Ff-278, 4-amino-N-(2-fluoro-4-(trifluoromethyl)benzyl)-N-(1-methyl-1H-pyrazol-4-yl)imidazo[1,5-a]quinoxaline-8-carboxamide]
[1]; [3]
  CC50: < 100 nM
[2]; [4]
  EC50 selectivity: 47
[2]
  EC50: 1 to 5 nM

## CCN(C(=O)c1ccc2nc(N)c3c(C)ncn3c2c1)[C@@H]1COc2cc(C(F)(F)F)ccc21 [Fg-6, (S)-4-amino-N-ethyl-3-methyl-N-(6-(trifluoromethyl)-2,3-dihydrobenzofuran-3-yl)imidazo[1,5-a]quinoxaline-8-carboxamide]
[1]; [5]
  CC50: < 100 nM
[2]; [6]
  EC50 selectivity: 88
[2]
  EC50: 1 to 5 nM

## CN(C(=O)c1cc2c(cc1Cl)nc(N)c1cncn12)[C@@H]1COc2cc(C(F)(F)F)ccc21 [Ff-10, (S)-4-amino-7-chloro-N-methyl-N-(6-(trifluoromethyl)-2,3-dihydrobenzofuran-3-yl)imidazo[1,5-a]quinoxaline-8-carboxamide]
[1]
  CC50: < 100 nM
[2]; [4]
  EC50 selectivity: 88
[2]
  EC50: ≤ 1 nM

## CN(C(=O)c1ccc2nc(N)c3cncn3c2c1)[C@@H]1COc2cc(Cl)ccc21 [Ff-566, (S)-4-amino-N-(6-chloro-2,3-dihydrobenzofuran-3-yl)-N-methylimidazo[1,5-a]quinoxaline-8-carboxamide]
[1]; [5]
  CC50: 100 to 1000 nM
[2]; [6]
  EC50 selectivity: 497
[2]
  EC50: 1 to 5 nM

## CN(C(=O)c1cc2c(cc1F)nc(N)c1cncn12)[C@@H]1COCc2cc(-c3cnn(C(F)(F)F)c3)ccc21 [Ff-279, (S)-4-amino-7-fluoro-N-methyl-N-(7-(1-(trifluoromethyl)-1H-pyrazol-4-yl)isochroman-4-yl)imidazo[1,5-a]quinoxaline-8-carboxamide]
[1]; [3]
  CC50: < 100 nM
[2]; [4]
  EC50 selectivity: 60
[2]
  EC50: ≤ 1 nM

## Cc1ncc2c3cc(C(=O)N(C)[C@@H]4COc5cc(C(F)(F)F)ccc54)ccc3nc(N)n12 [Fg-10, (S)-5-amino-N,3-dimethyl-N-(6-(trifluoromethyl)-2,3-dihydrobenzofuran-3-yl)imidazo[1,5-c]quinazoline-9-carboxamide]
[1]; [5]
  CC50: > 1000 nM
[2]; [6]
  EC50 selectivity: 307
[2]
  EC50: > 5 nM

## Nc1nc2ccc(C(=O)N3C[C@H](F)CC4Oc5cc(OC(F)(F)F)ccc5C43)cc2n2cncc12 (mixture of isomers) [Fg-58, rac-(4-aminoimidazo[1,5-a]quinoxalin-8-yl)((3R,4aS,9bS)-3-fluoro-7-(trifluoromethoxy)-3,4,4a,9b-tetrahydrobenzofuro[3,2-b]pyridin-1(2H)-yl)methanone]
[1]; [5]
  CC50: < 100 nM
[2]; [6]
  EC50 selectivity: 345
[2]
  EC50: 1 to 5 nM

## Cc1ncc2c(N)nc3cc(F)c(C(=O)N(C)[C@@H]4COCc5nc(C(F)(F)F)ccc54)cc3n12 [Ff-304, (S)-4-amino-7-fluoro-N,1-dimethyl-N-(2-(trifluoromethyl)-5,8-dihydro-6H-pyrano[3,4-b]pyridin-5-yl)imidazo[1,5-a]quinoxaline-8-carboxamide]
[1]; [3]
  CC50: < 100 nM
[2]; [4]
  EC50 selectivity: 127
[2]
  EC50: 1 to 5 nM

## Cc1ncn2c1c(N)nc1cnc(C(=O)N(C)[C@@H]3COc4cc(C(F)(F)F)ccc43)cc12 [Ff-502, (S)-4-amino-N,3-dimethyl-N-(6-(trifluoromethyl)-2,3-dihydrobenzofuran-3-yl)imidazo[1,5-a]pyrido[3,4-e]pyrazine-8-carboxamide]
[1]; [5]
  CC50: < 100 nM
[2]; [6]
  EC50 selectivity: 112
[2]
  EC50: 1 to 5 nM

## Cc1ncc2c(N)nc3ccc(C(=O)N(C)[C@@H]4COc5cc(C#CC6CCCO6)ccc54)cc3n12 (stereo partly drawn) [Ff-17, 4-amino-N,1-dimethyl-N-((3S)-6-((tetrahydrofuran-2-yl)ethynyl)-2,3-dihydrobenzofuran-3-yl)imidazo[1,5-a]quinoxaline-8-carboxamide]
[1]; [3]
  CC50: 100 to 1000 nM
[2]; [4]
  EC50 selectivity: 253
[2]
  EC50: 1 to 5 nM

## CC(C)N(Cc1ccc(C(F)(F)F)cc1F)C(=O)c1ccc2nc(N)c3cncn3c2c1 [Ff-412, 4-amino-N-[[2-fluoro-4-(trifluoromethyl)phenyl]methyl]-N-isopropyl-imidazo[1,5-a]quinoxaline-8-carboxamide]
[1]; [5]
  CC50: < 100 nM
[2]; [6]
  EC50 selectivity: 252
[2]
  EC50: ≤ 1 nM

## CN(Cc1ccc(-c2cnn(C(F)(F)F)c2)cc1F)C(=O)c1cc2c(cc1F)nc(N)c1cncn12 [Ff-24, 4-amino-7-fluoro-N-(2-fluoro-4-(1-(trifluoromethyl)-1H-pyrazol-4-yl)benzyl)-N-methylimidazo[1,5-a]quinoxaline-8-carboxamide]
[1]; [3]
  CC50: 100 to 1000 nM
[2]; [4]
  EC50 selectivity: 1985
[2]
  EC50: 1 to 5 nM

## Nc1nc2ccc(C(=O)N3CCC4(CC4)[C@@H]4Oc5cc(C(F)(F)F)ccc5[C@@H]43)cc2n2cncc12 [Ff-675, (4-aminoimidazo[1,5-a]quinoxalin-8-yl)((4aS,9bS)-7-(trifluoromethyl)-2,3,4a,9b-tetrahydro-1H-spiro[benzofuro[3,2-b]pyridine-4,1′-cyclopropan]-1-yl)methanone]
[1]; [5]
  CC50: < 100 nM
[2]; [6]
  EC50 selectivity: 107
[2]
  EC50: ≤ 1 nM

## C[C@H](c1ncccn1)N(Cc1ccc(C(F)(F)F)cn1)C(=O)c1ccc2nc(N)n3cncc3c2c1 [Fg-1, (R)-5-amino-N-(1-(pyrimidin-2-yl)ethyl)-N-((5-(trifluoromethyl)pyridin-2-yl)methyl)imidazo[1,5-c]quinazoline-9-carboxamide]
[1]; [5]
  CC50: 100 to 1000 nM
[2]; [6]
  EC50 selectivity: 50
[2]
  EC50: 1 to 5 nM

## Cc1ncc2c(N)nc3ccc(C(=O)N4C[C@@H](F)C[C@@H]5Oc6cc(C(F)(F)F)ccc6[C@@H]54)cc3n12 [Ff-660, (4-amino-1-methylimidazo[1,5-a]quinoxalin-8-yl)((3S,4aS,9bS)-3-fluoro-7-(trifluoromethyl)-3,4,4a,9b-tetrahydrobenzofuro[3,2-b]pyridin-1(2H)-yl)methanone]
[1]; [5]
  CC50: < 100 nM
[2]; [6]
  EC50 selectivity: 122
[2]
  EC50: ≤ 1 nM

## Nc1nc2ccc(C(=O)N(Cc3ccc(C(F)(F)F)cn3)C34CC(C3)C4)cc2c2cncn12 [Fg-15, 5-amino-N-(bicyclo[1.1.1]pentan-1-yl)-N-((5-(trifluoromethyl)pyridin-2-yl)methyl)imidazo[1,5-c]quinazoline-9-carboxamide]
[1]; [5]
  CC50: > 1000 nM
[2]; [6]
  EC50 selectivity: 8
[2]
  EC50: > 5 nM

## CN(C(=O)c1cc2c(cc1F)nc(N)c1cncn12)[C@@H]1COc2cc(C(F)(F)F)ccc21 [Ff-12, (S)-4-amino-7-fluoro-N-methyl-N-(6-(trifluoromethyl)-2,3-dihydrobenzofuran-3-yl)imidazo[1,5-a]quinoxaline-8-carboxamide]
[1]; [3]
  CC50: < 100 nM
[2]; [4]
  EC50 selectivity: 196
[2]
  EC50: ≤ 1 nM

## COC(C)(C)C#Cc1ccc2c(c1)OC[C@H]2N(C)C(=O)c1ccc2nc(N)c3cnc(C)n3c2c1 [Ff-18, (S)-4-amino-N-(6-(3-methoxy-3-methylbut-1-yn-1-yl)-2,3-dihydrobenzofuran-3-yl)-N,1-dimethylimidazo[1,5-a]quinoxaline-8-carboxamide]
[1]; [3]
  CC50: 100 to 1000 nM
[2]; [4]
  EC50 selectivity: 447
[2]
  EC50: > 5 nM

## CN(C(=O)C1CC1)N(Cc1ccc(C(F)(F)F)cc1F)C(=O)c1cc2c(cc1F)nc(N)c1cncn12 [Fb-3, 4-amino-N′-(cyclopropanecarbonyl)-7-fluoro-N-(2-fluoro-4-(trifluoromethyl)benzyl)-N′-methylimidazo[1,5-a]quinoxaline-8-carbohydrazide]
[1]; [3]
  CC50: < 100 nM
[2]; [4]
  EC50 selectivity: 32
[2]
  EC50: ≤ 1 nM

## C[C@H]1CN(C(=O)c2cc3c(cc2F)nc(N)c2cncn23)[C@H]2c3cc(F)c(Br)cc3C[C@H]2O1 [Ff-165, (4-amino-7-fluoroimidazo[1,5-a]quinoxalin-8-yl)((2S,4aS,9aR)-7-bromo-6-fluoro-2-methyl-2,3,9,9a-tetrahydroindeno[2,1-b][1,4]oxazin-4(4aH)-yl)methanone]
[1]; [3]
  CC50: < 100 nM
[2]; [4]
  EC50 selectivity: 43
[2]
  EC50: ≤ 1 nM
